The test has as its system C2C12 cells. The test can be described thus: Inhibition of CCPs- and caveolae-mediated endocytosis of CK2.3-Qdots. Type of test: cell-based, murine. Particulars: then 100 nM CK2.3-Qdots 18 h, confocal.

Procedure: C2C12 cells were grown in 35 mm dishes containing 18 mm × 18 mm square coverslips at a cell density of 1 × 10^4 cells/well for two days in DMEM media containing 20% FBS and 1% penicillin/streptomycin and at the end of the 2nd day, cells were serum starved with phenol-free DMEM media supplemented with 1% penicillin/streptomycin, but without FBS for 18 h. Next, we used chlorpromazine from Cayman chemical (Ann Arbor, MI, USA) to inhibit CCPs-mediated endocytosis. […] C2C12 cells were treated with 5 μm of Chlorpromazine in DMEM media supplemented with 10% FBS and 1% penicillin/streptomycin for 24 h [41]. […] C2C12 cells were treated with 50 μm of Lovastatin in phenol-free DMEM without FBS and supplemented only with 1% penicillin/streptomycin for 24 h [41, 42]. […] C2C12 cells were treated with 100 μm of methyl-β-cyclodextrin in phenol-free DMEM without FBS and supplemented only with 1% penicillin/streptomycin for 24 h [43]. […] After 18 h, cells were fixed using 4.4% (w/v) paraformaldehyde purchased from Sigma-Aldrich (St. Louis, MO, USA) for 20 min and permeabilized with 0.05% (w/v) saponin from Sigma-Aldrich (St. Louis, MO, USA) diluted in diH2O, for 10 min on ice. Later the nucleus was stained using 100 μL (0.5 ng/mL) of Hoechst (catalog # 23491-45-4) from Sigma-Aldrich (St. Louis, MO, USA). The coverslips were then mounted on the slides using Airvol [38]. Slides were imaged using Zeiss LSM 710 at 63×/1.4 Plan-Apochromat oil objective.
To inhibit both endocytic pathways we used methyl-β-cyclodextrin (MβCD) [60]. […] C2C12 cells were either left unstimulated or stimulated with the pharmacological inhibitors for 24 h. […] Cells were fixed, and images were collected using a confocal microscope (Figure 11).

As to `CN(C)CCCN1c2ccccc2Sc2ccc(Cl)cc21` [chlorpromazine, Chlorpromazine], the “effect of inhibitor on uptake of CK2.3-Qdots” value (“effect of inhibitor” for short) (chlorpromazine 5 μm, 24 h pre-treatment (CCP inhibitor)) is “did not affect the uptake”. `CC[C@H](C)C(=O)O[C@H]1C[C@@H](C)C=C2C=C[C@H](C)[C@H](CC[C@@H]3C[C@@H](O)CC(=O)O3)[C@H]21` [lovastatin, Lovastatin]: the “effect of inhibitor” value (lovastatin 50 μm, 24 h pre-treatment (caveolae inhibitor)) was “prevented CK2.3-Qdot®s from entering C2C12 cells”. Consider Methyl-β-cyclodextrin [MβCD], for which the “effect of inhibitor” value (methyl-β-cyclodextrin 100 μm, 24 h pre-treatment (CCP and caveolae inhibitor)) was “prevented CK2.3-Qdot®s from entering C2C12 cells”.
